Experimental data as given in publication PMC9958131 (Nature Communications, 2023).
No end group written: not given here. *: point of attachment. Cam = NC(=O)C*

Assays:
PAD2 and PAD4 = assay: Citrullination site mapping of fibrinogen and vimentin by trypsin digestion and mass spectrometry (protein-level sheet, one search over native, PAD2-cit and PAD4-cit samples); assay type: biochemical, human; conditions: modified residues found per protein; Deamidated [R..] = deamidated (citrullinated) arginine positions; trypsin digest, Sequest HT; not split by sample (native, PAD2-citrullinated, PAD4-citrullinated fibrinogen and vimentin)
Description: (§1) Description: Raw mass spectrometry data for proteolytic mapping of fibrinogen, vimentin, and hnRNP A2/B1 by cathepsins B, S, and H (sheets 1-6); citrullination site mapping of fibrinogen and vimentin by trypsin digestion (sheets 7-8); and the natural antigen processing assay with native, PAD2-citrullinated (PAD2-cit), and PAD4-citrullinated (PAD4-cit) fibrinogen (sheets 9-11).

[1] = tested on: recombinant human PAD2 and PAD4; assay: Citrullination site mapping by trypsin digestion and mass spectrometry; protein-level modifications over native, PAD2- and PAD4-citrullinated samples combined; assay type: biochemical; conditions: trypsin digest, Sequest HT search; co-identified proteins in the fibrinogen and vimentin samples (native, PAD2-cit, PAD4-cit); not split by sample or enzyme
Description: as §1

PAD2 / PAD4 = assay: Citrullination site mapping of fibrinogen and vimentin by trypsin digestion, protein-level sheet (native, PAD2- and PAD4-citrullinated samples searched together); assay type: biochemical, Homo sapiens; conditions: deamidated Arg (= citrullinated) positions found by Sequest HT after trypsin digestion; one list for all six samples (native, PAD2-, PAD4-citrullinated fibrinogen and vimentin); co-purified/contaminant proteins
Description: as §1

cathepsins B, S, and H = assay: Proteolytic mapping (ProtMap) of native and citrullinated autoantigens by cathepsins B, S, and H with LFQ-MS; assay type: biochemical, human; conditions: sites found over all samples of the cathepsin B, H digests, MSFragger search
Experimental: Prior to proteolytic mapping, citrullinated antigens were generated by incubating recombinant human antigens—hnRNP A2/B1 (RA33; custom-made as previously described by in ref. [24]), fibrinogen (Cayman Chemical), and vimentin (PeproTech)—with Sf9-purified peptidylarginine deiminase 2 or 4 (PAD2 or PAD4; Inova) at a 17:1 mass ratio in citrullination buffer (100 mM Tris, 1 mM DTT, 5 mM CaCl2, pH 7.5) for 4 h at 37 °C. Native antigens were diluted in the same buffer without PAD enzymes and without incubation at 37 °C to prevent degradation. Citrullination was confirmed by anti-peptidylcitrulline (clone F95, EMD Millipore) immunoblotting. […] The resulting peptide repertoires were then analyzed by LFQ–MS.
Prior to MS, the samples were reduced and alkylated by incubating in 10 mM Tris (2-Carboxyethyl) phosphine hydrochloride (TCEP, v/v) and 50 mM chloroacetamide (CAA, v/v) for 1 h at room temperature. […] The peptide samples were analyzed on an Orbitrap Fusion Lumos Tribrid mass spectrometer interfaced with an Ultimate 3000 RS Autosampler nanoflow liquid chromatography system (Thermo Scientific). […] The most intense ions with charge states of 2–5 were isolated in a 3-s cycle, fragmented using higher-energy collisional dissociation (HCD) fragmentation with 32% normalized collision energy, and detected at a mass resolution of 50,000 at an m/z of 200. […]

Q: A0A4W9A917 [Peptide A0A4W9A917] was tested. Which Modifications (PAD2 and PAD4) did it give?
A: Deamidated [R365]

Q: For Clusterin, which “Modifications (Deamidated [R...] = citrullinated arginine positions found)” value [1] is on record?
A: Deamidated [R306; R425]

Q: Filaggrin-2 was tested. Which “Modifications (Deamidated [R...] = citrullinated arginine positions found)” value [1] did it give?
A: Deamidated [R63]

Q: With “Glyceraldehyde-3-phosphate dehydrogenase” as the substance, how does the “Modifications (Deamidated [R...] = citrullinated arginine positions found)” value [1] read?
A: Deamidated [R80]

Q: For Heat shock cognate 71 kDa protein, which “Modifications (Deamidated [R...] = citrullinated arginine positions found)” value [1] is on record?
A: Deamidated [R323]

Q: Which “Modifications (Deamidated [R...] = citrullinated arginine positions found)” value [1] does the source give for Hornerin here?
A: Deamidated [R1507; R2447; R3930]

Q: Interleukin-8 was tested. Which “Modifications (Deamidated [R...] = citrullinated arginine positions found)” value [1] did it give?
A: Deamidated [R74]

Q: How did the Modifications (PAD2 / PAD4) turn out when “MYLNVIINNTWQGDFSQIKVFLMTLKNMISKLKTECGCQFTSKLEGMFRDMSISNTTMDEFRQHLQATGVSLGGVDLTVRVLTTGYWPTQSATPKCNIPPAPRHAFEIFRRFYLAKHSGRQLTLQHHMGSADLNATFYGPVKKEDGSEVGVGGAQVTGSNTRKHILQVSTFQMTILMLFNNREKYTFEEIQQETDIPERELVRALQSLACGKPTQRVLTKEPKSKEIENGHIFTVNDQFTSKLHRVKIQTVAAKQGESDPERKETRQKVDDDRKHEIEAAIVRIMKSRKKMQHNVLVAEVTQQLKARFLPSPVVIKKRIEGLIEREYLARTPEDRKVYTYVA [Peptide A0A087WTG3]” was run?
A: Deamidated [R283]

Q: How did the Modifications (PAD2 and PAD4) turn out when P01024 [Peptide P01024] was run?
A: Deamidated [R315; R386; R462; R710; R712; R1134; R1507; R1512; R1532; R1582]

Q: P01834 [Peptide P01834] was tested. Which Modifications (PAD2 and PAD4) did it give?
A: Deamidated [R1]

Q: For P01876 [Peptide P01876], which Modifications (PAD2 and PAD4) is on record?
A: Deamidated [R253; R263; R273]

Q: How did the Modifications (PAD2 and PAD4) turn out when P02751 [Peptide P02751] was run?
A: Deamidated [R83; R107; R114; R130; R155; R156; R241; R252; R265; R272; R290; R479; R694; R784; R1157; R1197; R1473; R1525; R1543; R1664; R1844; R1909; R1950; R1982; R2165; R2335; R2340; R2357; R2417; R2426; R2447; R2451]

Q: Which Modifications (PAD2 and PAD4) does the source give for P02768 [Peptide P02768] here?
A: Deamidated [R105; R122; R138; R141; R169; R281; R434; R452; R469; R509]

Q: For “P04259 (ATGGGLSSVGGGSSTIK) [Peptide P04259]”, which Modifications (PAD2 and PAD4) is on record?
A: Deamidated [R182; R222; R326; R369]

Q: “P04264 (GGGFGGGGIGGGGFGG) [Peptide P04264]” was tested. Which Modifications (PAD2 and PAD4) did it give?
A: Deamidated [R29; R65; R239; R267; R277; R386; R432; R483; R518; R549]

Q: How did the Modifications (PAD2 and PAD4) turn out when P04275 (IDVPWNVVPEK) [Peptide P04275] was run?
A: Deamidated [R236; R768; R782; R816; R906; R945; R1204; R1205; R1597; R1641; R1853; R1888; R1916; R1921; R1924; R1943; R1956; R1998; R2099; R2185; R2464; R2535; R2663; R2681; R2730]

Q: How did the Modifications (PAD2 and PAD4) turn out when P05160 (LIENGYFHPVK) [Peptide P05160] was run?
A: Deamidated [R69; R147; R271; R273; R380; R424; R432; R463; R507; R603]

Q: With P08779 [Peptide P08779] as the substance, how does the Modifications (PAD2 and PAD4) read?
A: Deamidated [R127; R284; R441]; Met-loss+Acetyl [N-Term]

Q: Which Modifications (PAD2 and PAD4) does the source give for P13645 (LQIDNARLAADDF) [Peptide P13645] here?
A: Deamidated [R15; R35; R156; R228; R245; R256; R322; R333; R399; R441; R450]

Q: “P17661 (VELQELNDRFANYIEKVR; also: deamidated, site not given here) [Peptide P17661]” was tested. Which Modifications (PAD2 and PAD4) did it give?
A: Deamidated [R118; R386]

Q: For “P22090 (LREC(Cam)LPLIVFLR) [Peptide P22090]”, which Modifications (PAD2 / PAD4) is on record?
A: Deamidated [R39]

Q: For P23142 (VRPIVGPFH) [Peptide P23142], which Modifications (PAD2 and PAD4) is on record?
A: Deamidated [R90; R179; R181; R287; R289; R343; R353; R467; R561; R562; R582; R642]

Q: “P35527 (GGGGGGGLGSGGSIRSSY) [Peptide P35527]” was tested. Which Modifications (PAD2 and PAD4) did it give?
A: Deamidated [R95; R163; R233; R250; R261; R327; R374; R427]

Q: For “P35908 (GPGGFGPGGYPGGIHE) [Peptide P35908]”, which Modifications (PAD2 and PAD4) is on record?
A: Deamidated [R45; R122; R221; R238; R247; R341; R384; R524; R544]

Q: With P41219 (EYQELLNVK) [Peptide P41219] as the substance, how does the Modifications (PAD2 and PAD4) read?
A: Deamidated [R397]

Q: How did the Modifications (PAD2 and PAD4) turn out when “P48668 (QC(Cam)ASLQAAIADAEQR) [Peptide P48668]” was run?
A: Deamidated [R182; R222; R326]

Q: For “P49771 (LLQETSEQLVALKPWITR; also: deamidated, site not given here) [Peptide P49771]”, which Modifications (PAD2 and PAD4) is on record?
A: Deamidated [R81; R85; R100; R147]

Q: With “P62269 (IPDWFLNRQK; also: deamidated, site not given here) [Peptide P62269]” as the substance, how does the Modifications (PAD2 / PAD4) read?
A: Deamidated [R86]

Q: For Pre-mRNA-processing-splicing factor 8, which “Modifications (Deamidated [R...] = citrullinated arginine positions found)” value [1] is on record?
A: Deamidated [R362]

Q: For “Q14525 (EVEQWFATQTEELNK) [Peptide Q14525]”, which Modifications (PAD2 and PAD4) is on record?
A: Deamidated [R293]

Q: With “Q15323 (LNVEVDAAPTVDLNR) [Peptide Q15323]” as the substance, how does the Modifications (PAD2 and PAD4) read?
A: Deamidated [R293]

Q: With Serotransferrin as the substance, how does the “Modifications (Deamidated [R...] = citrullinated arginine positions found)” value [1] read?
A: Deamidated [R239]

Q: How did the “Modifications (Deamidated [R...] = citrullinated arginine positions found)” value [1] turn out when Tubulin beta chain was run?
A: Deamidated [R2; R121; R156; R162]

Q: Tubulin beta-2A chain was tested. Which “Modifications (Deamidated [R...] = citrullinated arginine positions found)” value [1] did it give?
A: Deamidated [R2; R121]

Q: With “Vimentin: recombinant human vimentin (PeproTech), RA autoantigen; native or citrullinated by PAD2 or PAD4” as the substance, how does the “Modifications (deamidated arginine = citrullinated sites detected)” value (cathepsins B, S, and H) read?
A: Deamidated [R13; R23; R36; R64; R100; R113; R158; R175; R184; R196; R207; R270; R273; R304; R310; R364; R401; R410; R424; R440; R450]

Q: And the Modifications (PAD2 and PAD4)?
A: Deamidated [R13; R23; R28; R36; R45; R50; R64; R69; R71; R78; R100; R113; R122; R145; R155; R158; R159; R170; R175; R184; R186; R196; R207; R217; R222; R270; R273; R304; R310; R320; R321; R342; R345; R364; R378; R381; R401; R410; R424; R440; R450]
